Data reported in PubChem BioAssay (NCI).
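Tested at 5 concentrations; 48 h exposure; 96-well plates; endpoints linearly interpolated, else capped at highest concentration. The concentration for full growth arrest is given as TGI.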

Columns and labels:
Experiment in all cases: growth of human tumour cells (NCI), 48 h
[1] = test system: HOP-92 NSCLC
[2] = test system: K-562 leukemia
[3] = test system: CCRF-CEM leukemia
[4] = test system: MOLT-4 leukemia
[5] = test system: SK-MEL-28 melanoma
[6] = test system: SR leukemia
[7] = test system: HS 578T breast
[8] = test system: SF-539 CNS
[9] = test system: IGROV1 ovarian
[10] = test system: HOP-62 NSCLC
[11] = test system: SNB-75 CNS
[12] = test system: ACHN renal
[13] = test system: OVCAR-5 ovarian
[14] = test system: UO-31 renal
[15] = test system: M14 melanoma
[16] = test system: 786-0 renal
[17] = test system: CAKI-1 renal
[18] = test system: NCI-H23 lung
[19] = test system: NCI-H522 lung
[20] = test system: TK-10 renal
[21] = test system: HL-60(TB) leukemia
[22] = test system: DU-145 prostate
[23] = test system: SK-MEL-5 melanoma
[24] = test system: RXF 393 renal
[25] = test system: KM12 colon
[26] = test system: NCI-H460 lung
[27] = test system: MALME-3M melanoma
[28] = test system: HCT-15 colon
[29] = test system: PC-3 prostate
[30] = test system: SK-MEL-2 melanoma
[31] = test system: U251 CNS
[32] = test system: SK-OV-3 ovarian
[33] = test system: HCT-116 colon
[34] = test system: HT29 colon
[35] = test system: SF-295 CNS
[36] = test system: EKVX NSCLC
[37] = test system: NCI/ADR-RES ovarian
[38] = test system: MDA-N
[39] = test system: A549 NSCLC
[40] = test system: BT-549 breast
[41] = test system: MDA-MB-435
[42] = test system: LOX IMVI melanoma
[43] = test system: HCC-2998 colon
[44] = test system: T-47D breast
[45] = test system: SF-268 CNS
[46] = test system: SW-620 colon
[47] = test system: SNB-19 CNS
[48] = test system: UACC-257 melanoma
[49] = test system: OVCAR-8 ovarian
[50] = test system: OVCAR-4 ovarian
[51] = test system: COLO 205 colon
[52] = test system: MDA-MB-231 breast
[53] = test system: UACC-62 melanoma
[54] = test system: RPMI-8226 leukemia
[55] = test system: SN12C renal
[56] = test system: NCI-H226 lung
[57] = test system: OVCAR-3 ovarian
[58] = test system: MCF7 breast
[59] = test system: A498 renal

CCOC(=O)C(=C(SC)SC)c1nn2c(=O)cc(C)nc2s1
TGI [1]: 34.4 µM
TGI [2]: 44.1 µM
TGI [3]: 68.6 µM
TGI [4]: 44.1 µM
TGI [5]: 31.3 µM
TGI [6]: 61.3 µM
TGI [7]: > 100 µM
TGI [8]: 32.7 µM
TGI [9]: 47.5 µM
TGI [10]: > 100 µM
TGI [11]: 89.6 µM
TGI [12]: 33.7 µM
TGI [13]: 67.2 µM
TGI [14]: 34 µM
TGI [15]: 29.4 µM
TGI [16]: 36.2 µM
TGI [17]: 60.1 µM
TGI [18]: 65.9 µM
TGI [19]: 41.7 µM
TGI [20]: 44.9 µM
TGI [21]: 37.6 µM
TGI [22]: 30.1 µM
TGI [23]: 36.9 µM
TGI [24]: 47.5 µM
TGI [25]: 89.7 µM
TGI [26]: 60.7 µM
TGI [27]: 32.3 µM
TGI [28]: 31.8 µM
TGI [29]: 56.6 µM
TGI [30]: 37.5 µM
TGI [31]: 58.1 µM
TGI [32]: > 100 µM
TGI [33]: 30.5 µM
TGI [34]: 35.8 µM
TGI [35]: > 100 µM
TGI [36]: 53.8 µM
TGI [37]: 90.4 µM
TGI [38]: 30.6 µM
TGI [39]: > 100 µM
TGI [40]: 43.7 µM
TGI [41]: 30.7 µM
TGI [42]: 29.5 µM
TGI [43]: 34.9 µM
TGI [44]: 34.1 µM
TGI [45]: 54.5 µM
TGI [46]: 41.3 µM
TGI [47]: 86 µM
TGI [48]: 45.2 µM
TGI [49]: 43.9 µM
TGI [50]: > 100 µM
TGI [51]: 36.2 µM
TGI [52]: 47.8 µM
TGI [53]: 57.3 µM
TGI [54]: 41.3 µM
TGI [55]: > 100 µM
TGI [56]: 44.6 µM
TGI [57]: 35 µM
TGI [58]: 35.5 µM

CCOC(=O)N/N=C(/N)Cc1ccccc1
TGI [1]: > 100 µM
TGI [2]: > 100 µM
TGI [3]: > 100 µM
TGI [4]: > 100 µM
TGI [5]: > 100 µM
TGI [6]: > 100 µM
TGI [7]: > 100 µM
TGI [8]: > 100 µM
TGI [9]: > 100 µM
TGI [10]: > 100 µM
TGI [11]: > 100 µM
TGI [12]: > 100 µM
TGI [13]: > 100 µM
TGI [14]: > 100 µM
TGI [15]: > 100 µM
TGI [16]: > 100 µM
TGI [17]: > 100 µM
TGI [19]: > 100 µM
TGI [20]: > 100 µM
TGI [21]: > 100 µM
TGI [22]: > 100 µM
TGI [23]: > 100 µM
TGI [24]: > 100 µM
TGI [25]: > 100 µM
TGI [26]: > 100 µM
TGI [27]: > 100 µM
TGI [28]: > 100 µM
TGI [29]: > 100 µM
TGI [30]: > 100 µM
TGI [32]: > 100 µM
TGI [33]: > 100 µM
TGI [35]: > 100 µM
TGI [36]: > 100 µM
TGI [37]: > 100 µM
TGI [38]: > 100 µM
TGI [39]: > 100 µM
TGI [40]: > 100 µM
TGI [41]: > 100 µM
TGI [42]: > 100 µM
TGI [43]: > 100 µM
TGI [44]: > 100 µM
TGI [45]: > 100 µM
TGI [46]: > 100 µM
TGI [47]: > 100 µM
TGI [48]: > 100 µM
TGI [49]: > 100 µM
TGI [51]: > 100 µM
TGI [52]: > 100 µM
TGI [53]: > 100 µM
TGI [55]: > 100 µM
TGI [59]: > 100 µM
TGI [57]: > 100 µM
TGI [58]: > 100 µM
